A melting point compilation (Tetko et al.; mined from patent text by program, amines drawn as free bases though some values may be those of a salt)

Compound | melting point [°C]
CCCc1c(OCCCSCCC(=O)O)ccc(C(C)=O)c1O | 90 to 92
O=C(C(Cl)=Cn1ccnc1)c1ccc(Cl)cc1Cl | 149 to 151
O=C(CC1=C(n2nc(-c3c(-c4ccccc4)nn4ccccc34)ccc2=O)CCCC1)N1CCOCC1 | 202 to 204
NC(=O)c1[nH]nc([C@@H]2O[C@H](CO)[C@@H](O)[C@H]2O)c1O | 112 to 115
O=C(CC(c1ccccc1)c1ccccc1)NCO | 149 to 151
Cc1c(SCCCl)ccnc1CSc1nc2ccccc2[nH]1 | 178 to 180
O=C(O)c1cccc(-c2ccc3c(c2)N(c2ccc(Cl)c(Cl)c2)CC3)c1 | 205 to 206
C#CCN1C(=O)COc2ccc(C3CC(=O)C(C(CC)=NOCC)=C(O)C3)cc21 (stereo unspecified) | 100 to 102
CC(O)CCc1ccc2c(c1)Cc1ccccc1-2 (stereo unspecified) | 120 to 121
CC(=O)NC[C@H]1CN(c2ccc(-n3nccc3-c3cccc(Br)n3)c(F)c2)C(=O)O1 | 90.5 to 92.3
CC(C)Oc1c(C(N)=O)oc2ccccc12 | 82 to 83
OC(c1ccc2c(c1)SCCN2)(C(F)(F)F)C(F)(F)F | 99 to 100
COc1cc2c(cc1Nc1ncc(Cl)c(Nc3ccc(N(C)C)cc3OC)n1)CCN(CCN1CCOCC1)CC2 | 115
CSc1ccc(/C=C2/C(C)=C(CCCN(O)C(N)=O)c3cc(F)ccc32)cc1 | 145 to 147
CCOC(=O)C=CC(=O)Nc1ccc(Cl)cc1C(=O)c1ccccc1Cl | 113 to 114
Cc1c(OCC(=O)O)cc2c(c1Cl)C(=O)C1(CCCC1)C2=O | 204 to 205
CC[C@H]1[C@H](O)CC(=O)N1c1ccc(C#N)c(Cl)c1 | 118 to 120
CC(=O)OC(C)(C(=O)O)c1ccc(-c2ccccc2)c(F)c1 (stereo unspecified) | 125 to 127
CCOc1cc(CO)ccc1OCc1nc(-c2ccco2)oc1C | 141 to 142
COc1ccc(S(=O)(=O)N(CCCO)c2ccccc2/C=C/c2ccncc2)cc1 | 164 to 167
O=C(O)c1cc(=O)c2cc(F)ccc2[nH]1 | 206 to 210
NC(=O)c1c(Cl)c(-c2ccccc2)n2c1CN(C(=O)c1ccco1)CC2 | 238 to 239
CC(CO)N1CCN(c2ccccn2)CC1 (stereo unspecified) | 62 to 64
O=c1ncc(C(F)(F)F)cn1COCc1ccc(Cl)cc1 | 120
O=C1C(c2cc3c(cc2O)OCC3)c2cc(F)ccc2N1C(c1ccccc1)c1ccccc1 (stereo unspecified) | 179 to 181
CCc1ccc(C=NNC(=O)c2ccc(O)cc2)s1 | 194

Compound | melting point [°C]
N#CN(c1ccccc1)S(=O)(=O)c1ccccc1 | 65 to 66
CCOC(=O)NC(=S)Nc1cc(NC(=O)OC)ccc1NC(=O)CN(C)C | 171 to 172
CC(C)n1nc(-c2c(-c3ccccc3)nn3ccc(OCC(=O)N4CCN(C(=O)OC(C)(C)C)CC4)cc23)ccc1=O | 140 to 144
c1ccc2c(c1)OC(c1ccc(OCCN3CCCCC3)cc1)c1c-2sc2ccccc12 (stereo unspecified) | 107
N#Cc1cc([N+](=O)[O-])ccc1N1CCNCC1CCO (stereo unspecified) | 100 to 102
CC(O)(C(=O)Nc1ccc(S(=O)(=O)c2ccccc2)cc1)C(F)(F)F (stereo unspecified) | 164 to 166
CSc1ccc(C(=O)NN=C2C(=O)Nc3ccc(I)cc32)cc1 | 298
COCCN1CCN(S(=O)(=O)c2ccc(-c3cnc4[nH]c(CCc5cc(OC)ccn5)nc4c3)cc2)CC1 | 206 to 208
COc1ccc(Nc2nc(Cl)cc(NC3CCCCCC3)n2)cc1Cl | 74 to 76
CCCn1nc(C(F)F)nc1Cc1ccc(-c2ccccc2-c2nnn[nH]2)nc1 | 176 to 178
CCCCCCCNC(=O)Oc1ccc2c(c1)N(Cc1ccccc1)CCC2 | 50
CC(C)(C)C(NC(=O)Cc1ccc(Cl)cc1)NC(=NC#N)Nc1cccc2cnsc12 (stereo unspecified) | 135 to 137
CON=C(N)C(F)(F)C(O)(Cn1cncn1)c1ccc(F)cc1F (stereo unspecified) | 114
CC(=O)Nc1cnn2c1-c1ccccc1NC2(C)C | 228 to 230
C=CCc1c(OC)c(=O)[nH]c2cc(Cl)ccc2c1=O | 135 to 136
Cc1nccn1S(=O)(=O)c1c[nH]cn1 | 158 to 159
NC(=O)c1cnccc1C(F)(F)F | 163
CCOc1ccc2c(c1)n(C1CCCC1)c(=O)n2S(=O)(=O)c1ccc(C(=O)OC)cc1OC | 151
Cc1c(Br)c(C)c(Cc2ccc(C(C)C)cc2)c2c1CCO2 | 95 to 96
Cc1nn2ccccc2c1C(=O)c1cccnc1 | 89 to 90
COCCNC(=O)c1cc(-c2cccc3cc(Cc4cccc(C(F)(F)F)c4)sc23)ccc1F | 94 to 95
COc1sc(C)c(CO)c1C | 55 to 60
CCOC(=O)Cc1c(C)n(Cc2ccccc2)c2ccc(O)cc12 | 122 to 125
O=C1O[C@@H](CO)CN1c1ccc(C2=CCOCC2)c(F)c1 | 127 to 130
O=C(Nc1ncco1)C1c2ccccc2Sc2ccccc21 | 188 to 191
CSc1ccc(-c2nn(Cc3ccc(F)cc3F)c(=O)cc2-c2ccc(Cl)cc2)cc1 | 157 to 158

Compound | melting point [°C]
O=[N+]([O-])c1cccc(OCc2nc3ccccc3s2)c1 | 156 to 157
COc1ccc(SCC(=O)c2ccccc2)cc1C | 41 to 43
COc1ncnc2cc(Br)sc12 | 111 to 113
COc1ccc(CNc2nc(-c3ccccc3)c(-c3ccc(=O)n(C(C)C)n3)nc2C(=O)O)cc1 | 216 to 217
Cn1c2c(c3ccccc31)C(=O)C(CNC1=NCCN1)CS2 (stereo unspecified) | 245 to 247
COc1c(NC(=O)c2ccc(C)c(-n3cc(C(=O)O)nn3)c2)cc(C(C)(C)C)cc1NS(C)(=O)=O | 222 to 224
Cc1nc2cc(NC(=O)c3cc4cc(C(F)(F)F)cnc4n3Cc3cccc(F)c3)ccc2s1 | 204 to 206
COc1cccc(C2=C(CC(C)N3CCCC3)C(=O)NCCC2)c1 (stereo unspecified) | 94 to 96
CN(C)C(=O)c1ccc2c(c1)CC(=O)N2 | 147 to 148
COC(=O)c1ccc(CN2CCOc3ccc([N+](=O)[O-])cc32)c(OC)c1 | 130 to 132
COc1ccc(CCN2CCC(C3c4ccn(C)c4C=Cn4ncnc43)CC2)cc1 (stereo unspecified) | 140
COc1ccccc1CN1Cc2cc(OC)c(OCc3ccccc3)cc2C(OC)C1 (stereo unspecified) | 101 to 102
COc1cc(N)c(Cl)cc1C(=O)Nc1cc(OC)c(C(=O)N[C@H]2CCN(CCCOc3ccc(F)cc3)C[C@H]2OC)cc1Cl (relative stereo) | 182
CCOc1cc(CCl)nc(C)n1 | 29
CCCCCCCCCCCC(=O)NNC(=O)c1ccccc1O | 158
C=CC(=O)OC1CC(C)(C)N(OC2CCCCC2)C(C)(C)C1 | 49 to 52
COc1cc(Nc2c(C#N)cnc3cc(/C=C/CCCN4CCOCC4)c(OC)cc23)c(Cl)cc1Cl | 110 to 112
CC(C)(C)c1ccccc1N1CCN(C(=O)c2ncoc2-c2ccccc2)CC1 | 146 to 148
COc1ccc(N)nc1C | 98 to 100
Nc1ccccc1NC(=O)c1ccc(CNC(=O)c2[nH]c(-c3ccoc3)cc2-c2ccc(O)cc2)cc1 | 70 to 72
COCCOc1ccc(/C=C/C(=O)O)c(Oc2ncc(Cl)cc2Cl)c1 | 182 to 184
CC(=O)N(C)C1=C(C#N)CC(N)(C(=O)CCCl)C=C1 (stereo unspecified) | 174 to 175
Cn1c(CN)nc(-c2ccncn2)cc1=O | 153 to 155
O=C1c2ccc(-c3ccccc3)cc2CC1Br (stereo unspecified) | 99 to 100
CC(C)(C)C(O)(COc1ccc(F)cc1)C(Cc1ccc(Cl)cc1)n1cncn1 (stereo unspecified) | 104 to 105
CCOC(=O)c1cn2c3c(cc(N(C)C)cc3c1=O)CCC2C (stereo unspecified) | 219 to 222

Compound | melting point [°C]
CNC(=O)CCCCN1CCC(C(O)(c2ccc(F)cc2)c2ccc(F)cc2)CC1 | 130 to 131
CCCCCCCCC1C=CC(C(=O)c2ccc(C(=O)O)o2)=C2N=C3CCCCC3=C21 (stereo unspecified) | 140 to 142
Cc1ncc([N+](=O)[O-])n1CCOC(=O)Cc1ccccc1Nc1c(Cl)cccc1Cl | 122 to 124
CCOCc1nc2c(N)nc3cc(N4CCCCC4)ccc3c2n1CCCOC(C)C | 182 to 184
COc1ccc2c(c1)c(CC(=O)O)c(C)n2C(=O)c1ccc(F)c(F)c1 | 113 to 115
N/C(=C1/Sc2ccccc2C1=O)c1ccccc1Br | 143 to 144
CCCCCCCCCCCCc1ccc2c(c1)C(=O)c1ccccc1C2=O | 99 to 105
CC(C)Oc1ccc2c(c1)N(CCCN1CCC(CCO)CC1)c1cccc(S(C)(=O)=O)c1S2 | 50
O=C(Nc1ccc(N2CC3CC3C2)nc1)c1cc2cc(F)ccc2n1Cc1cccc(F)c1 (stereo unspecified) | 193 to 195
COc1ccc(Br)c(-n2c(=O)[nH]c(=O)n(C)c2=O)c1 | 185 to 187
COC(=O)Cc1cccc(NC(=O)NCC(=O)O)c1 | 136
O=C1NCCCN1c1ccccc1 | 210 to 211
CCN(CC)C(=CC1=NCCCC1)c1ccccc1 | 169 to 170
COc1ccc(NC(=O)C(=O)c2c3n(c4ccccc24)CCNCC3)cc1 | 177 to 180
CCc1nccc(NC2COC(c3ccccc3)OC2)c1Cl (stereo unspecified) | 119 to 120
Cc1cc2cc(CN3CCCC3)cnc2cc1NC(=O)c1ccc(-c2ccc(F)cc2)c(F)c1 | 163 to 166
O=[N+]([O-])c1cccc(S(=O)(=O)N(CCO)CCO)c1 | 100 to 102
O=[N+]([O-])c1cn2c(n1)OC[C@@H](OCc1ncc(Br)cn1)C2 | > 290
CNC(=O)N1N=C(c2ccc(N)cc2)c2cc(Cl)ccc2CC1C (stereo unspecified) | 115 to 118
CCOC(=O)CCC1CCN(C(=O)[C@H](C)NC(=O)c2ccc(C#N)cc2)CC1 | 108 to 109
CCOC(=O)COC(=O)Cc1ccc2cc(OC)ccc2c1 | 38 to 40
CCc1nc2c(C)c(Br)c(C)nc2n1Cc1ccc2oc(-c3cccc(F)c3C(=O)O)c(Br)c2c1 | 223 to 225
CC(C)(C)c1cc(Sc2n[nH]c(=S)o2)cc(C(C)(C)C)c1O | 129 to 131
